Laboratory results from paper PMC10671693, “Design, Synthesis, and Antitumor Activity Evaluation of Proteolysis-Targeting Chimeras as Degraders of Extracellular Signal-Regulated Kinases 1/2” (International Journal of Molecular Sciences, 2023).
Entries after “also recorded” stand apart in the source; their conditions may differ. Where two headings read alike, the source gives them in different places.

Tests used:
ERK1 = settings: cited from earlier work
ERK2 = settings: cited from earlier work
[1] = system: BRAF mutant and RAS mutant cell lines; design: method as in PMID 29247021, PMID 28939558; settings: preclinical studies; cited from earlier work
HCT116 tumor = assay: HCT116 subcutaneous xenograft model in nude mice; type: in vivo
Procedure: Male BALB/c nude mice of around 8 weeks old were purchased from Charles River (Beijing, China). Nude mice were raised in SPF-grade animal rooms and had access to water and food ad libitum. HCT116 colorectal cancer cells were grown in DMEM supplemented with 10% fetal calf serum and 1% penicillin/streptomycin under standard cell culture conditions. HCT116 xenografts were prepared by subcutaneously injecting 5× 10^6 cells suspended in PBS into the right flank of each male BALB/c nude mouse. Tumor growth was monitored via caliper measurement, and volume was calculated using the following equation: 0.5 × max (length/width) × min (length/width) × min (length/width). When the tumors reached an average of approximately 100 mm^3, the mice were randomized into groups of five. The mice were injected intraperitoneally once a day at doses of 6, 12, 25 mg/kg compound B1-10J and 25 mg/kg 5-FU. Body weights and tumor volumes were measured every 2–3 days. All studies were appropriately statistically powered.

ERK1/2 [2] = assay: Western blot ERK1/2 protein degradation assay in A375 cells; type: cell-based, human; settings: for ERK1/2 degradative activity (in words): Western blot; for DC50: Western blotting and grayscale quantification
Procedure: (§1) A375, HCT116, Calu-6, and B16-F10 cells were purchased from American Type Culture Collection (ATCC) and cultured in DMEM high glucose media (SH30022.01, Cytiva, Shanghai, China) supplemented with 10% fetal bovine serum (10099-144, Gibco, Carlsbad, CA, USA) and 1% penicillin/streptomycin (Solarbio, Beijing, China) in an incubator at 37 °C with 5% CO2.
Cells were cultured under the indicated conditions as described in “Cell culture”. Cells were seeded in 6-well plates (3516, Corning, New York, NY, USA). Compounds were dissolved in DMSO for storage (10 mM). Following compound treatment, cells were washed with PBS, scraped from the plate, and lysed using cell lysis buffer (Applygen, Beijing, China). After the protein in the cell lysate was quantified via the BCA quantification method, the samples were placed in a metal bath at 100 °C and heated for 5 min. Cell lysates were separated using a 10% SDS–PAGE gel and transferred to PVDF membranes (Merck Millipore, Burlington, MA, USA). The PVDF membrane was blocked with 5% nonfat dry milk in TBST for one hour. The PVDF membrane was transferred to the antibody diluent and incubated overnight at 4 °C. PVDF membranes were washed three times with TBST for 5 min each and then incubated with the appropriate HRP-conjugated secondary antibody for 1 h at room temperature. After washing three more times with TBST, the PVDF membrane was stained with a hypersensitive ECL chemiluminescence reagent (Biodragon, Beijing, China) and then imaged with Tanon 5200. Grayscale quantitative analysis was performed using ImageJ software. Statistical analysis was performed using GraphPad Prism 8. DC50 and Dmax values were fitted using a four-parameter [inhibitor] versus response and reported directly from the Prism output. Mean ± SD and unpaired t tests were performed in GraphPad Prism.

ERK1/2 [3] = assay: Western blot ERK1/2 protein degradation assay in HCT116 cells; type: cell-based, human
Procedure: A375, HCT116, Calu-6, and B16-F10 cells were purchased from American Type Culture Collection (ATCC) and cultured in DMEM high glucose media (SH30022.01, Cytiva, Shanghai, China) supplemented with 10% fetal bovine serum (10099-144, Gibco, Carlsbad, CA, USA) and 1% penicillin/streptomycin (Solarbio, Beijing, China) in an incubator at 37 °C with 5% CO2. Cells were cultured under the indicated conditions as described in “Cell culture”. Cells were seeded in 6-well plates (3516, Corning, New York, NY, USA). Compounds were dissolved in DMSO for storage (10 mM). Following compound treatment, cells were washed with PBS, scraped from the plate, and lysed using cell lysis buffer (Applygen, Beijing, China). After the protein in the cell lysate was quantified via the BCA quantification method, the samples were placed in a metal bath at 100 °C and heated for 5 min. Cell lysates were separated using a 10% SDS–PAGE gel and transferred to PVDF membranes (Merck Millipore, Burlington, MA, USA). The PVDF membrane was blocked with 5% nonfat dry milk in TBST for one hour. The PVDF membrane was transferred to the antibody diluent and incubated overnight at 4 °C. PVDF membranes were washed three times with TBST for 5 min each and then incubated with the appropriate HRP-conjugated secondary antibody for 1 h at room temperature. After washing three more times with TBST, the PVDF membrane was stained with a hypersensitive ECL chemiluminescence reagent (Biodragon, Beijing, China) and then imaged with Tanon 5200. Grayscale quantitative analysis was performed using ImageJ software. Statistical analysis was performed using GraphPad Prism 8. DC50 and Dmax values were fitted using a four-parameter [inhibitor] versus response and reported directly from the Prism output. Mean ± SD and unpaired t tests were performed in GraphPad Prism.

ERK1/2 [4] = assay: Western blot ERK1/2 protein degradation assay in Calu-6 cells; type: cell-based, human; settings: 48 h, Western blot and grayscale quantification
Procedure: (§2) A375, HCT116, Calu-6, and B16-F10 cells were purchased from American Type Culture Collection (ATCC) and cultured in DMEM high glucose media (SH30022.01, Cytiva, Shanghai, China) supplemented with 10% fetal bovine serum (10099-144, Gibco, Carlsbad, CA, USA) and 1% penicillin/streptomycin (Solarbio, Beijing, China) in an incubator at 37 °C with 5% CO2. Cells were cultured under the indicated conditions as described in “Cell culture”. Cells were seeded in 6-well plates (3516, Corning, New York, NY, USA). Compounds were dissolved in DMSO for storage (10 mM). Following compound treatment, cells were washed with PBS, scraped from the plate, and lysed using cell lysis buffer (Applygen, Beijing, China). After the protein in the cell lysate was quantified via the BCA quantification method, the samples were placed in a metal bath at 100 °C and heated for 5 min. Cell lysates were separated using a 10% SDS–PAGE gel and transferred to PVDF membranes (Merck Millipore, Burlington, MA, USA). The PVDF membrane was blocked with 5% nonfat dry milk in TBST for one hour. The PVDF membrane was transferred to the antibody diluent and incubated overnight at 4 °C. PVDF membranes were washed three times with TBST for 5 min each and then incubated with the appropriate HRP-conjugated secondary antibody for 1 h at room temperature. […] Grayscale quantitative analysis was performed using ImageJ software. […]

ERK1/2 [5] = assay: Western blot ERK1/2 protein degradation assay in B16-F10 cells; type: cell-based; settings: B16-F10 murine melanoma cells, 48 h
Procedure: as §2

A375 cells [6] = assay: Cell proliferation (CCK8) assay, A375; type: cell-based; settings: Homo sapiens, A-375, A375, 72 h, read-out: IC50 (growth inhibition, cytotoxicity)
Procedure: as §1
(§3) A 96-well plate (3599, Corning, New York, NY, USA) was inoculated with 100 μL of complete medium containing 10,000 cells, and the experimental, control, and blank groups were established. Three parallel wells were used per concentration. After 10 h, the media from the experimental and control groups were replaced with a compound containing the indicated concentration of the complete medium. Cells were incubated for 72 h before 10 μL of CCK8 reagent (CA1210, Solarbio, Beijing, China) was added to each well and incubated for 1 h. Using a microplate reader (Tecan, Mannendorf, Switzerland), the absorbance at 450 nm was measured. The IC50 values were determined using GraphPad Prism 8 and nonlinear regression curve fitting.

HCT116 cells = assay: Cell proliferation (CCK8) assay, HCT116; type: cell-based, human; settings: HCT116, 72 h, read-out: IC50 (growth inhibition, cytotoxicity)
Procedure: as §1, §3

Calu-6 cells = assay: Cell proliferation (CCK8) assay, Calu-6; type: cell-based; settings: Homo sapiens, Calu-6, 72 h, read-out: IC50 (growth inhibition, cytotoxicity)
Procedure: as §1, §3

A375 cells [7] = assay: Transwell migration assay; type: cell-based, human; settings: 24 h
Procedure: A total of 100 µL of FBS-free DMEM high-glucose medium containing 20,000 cells was added to the upper layer of the Transwell chamber of a 24-well plate (3422, Corning, New York, NY, USA), and a complete medium containing 10% FBS was added to the lower layer. The experimental group and the control group were established. The control group used DMSO (DMSO concentration in the culture medium was no more than 0.5% in each well), and the specified concentration of compounds was added to the medium of the experimental group. The cells were then placed in an incubator for 24 h. The cells were washed with PBS, the cells in the upper layer of the Transwell chamber were wiped off with a cotton swab, and the cells were fixed with cold methanol for 15 min. The cells were stained with crystal violet reagent and observed and photographed under a microscope. Then, crystal violet was washed with 33% acetic acid and the absorbance was measured at a wavelength of 590 nm. Graphing with GraphPad Prism 8 after counting cells was performed.

HCT116 mouse xenografts = system: HCT116 mouse xenografts; design: method as in PMID 27227380; settings: cited from earlier work
tumor = system: tumor; design: method as in PMID 28376306; settings: daily dose of 50 mg/kg; cited from earlier work

## CC(C)Nc1cc(-c2c[nH]c(C(=O)N[C@H](CO)c3cccc(Cl)c3)c2)c(Cl)cn1 [BVD-523]
ERK1
  Ki: < 0.3 nM
ERK2
  Ki: 0.04 nM
[1]
  anticancer activity: demonstrated anticancer activity

## O=c1[nH]cc(F)c(=O)[nH]1 [Compound 5-FU, 5-fluorouracil, reference compound]
HCT116 tumor; mouse, in vivo
  body weight / tolerability: trend of weight loss

## Cc1cccc(CN2C(=O)c3cc(-c4nc(Nc5ccnc(C#CCCN(C)CCCCCCCCCCNc6cccc7c6C(=O)N(C6CCC(=O)NC6=O)C7=O)c5)ncc4C)cn3C[C@H]2C)n1 (stereo partly drawn) [Compound B1-10J]
ERK1/2 [2]; 1 μM
  time after which ERK1/2 protein level returned to normal: > 48 h
  time at which ERK1/2 degradation nearly reached its highest level: 24 h
  time at which ERK1/2 protein began to degrade: 6 h
ERK1/2 [2]; 24 h, B1-10J 1 μM, MG132 1 μM, MLN4924 1 μM
  ERK1/2 degradation with/without MG132 and MLN4924: only degraded by B1-10J alone
ERK1/2 [2]; 24 h, large range of concentrations
  concentration dependence of ERK1/2 degradation (hook effect): typical “hook” effect
ERK1/2 [2]; 48 h
  ERK1/2 degradative activity (in words): slightly increased DC50; also recorded: effective ERK1/2 degraders
  DC50: 498 ± 369 nM
ERK1/2 [3]; 1 μM
  duration of ERK1/2 degradation: up to 72 h
  time at which ERK1/2 degradation nearly reached its highest level: 24 h
  time at which ERK1/2 protein began to degrade: 6 h
ERK1/2 [3]; 48 h, Western blot and grayscale quantification
  DC50: 102 nM
ERK1/2 [4]
  DC50: 85 nM
ERK1/2 [5]
  ERK1/2 degradative activity (in words): weak degradative activity
A375 cells [6]
  IC50: > 30000 nM
HCT116 cells
  IC50: 2100 nM
HCT116 cells; Homo sapiens, HCT-116, 72 h
  IC50: 2200 nM
Calu-6 cells
  IC50: 15900 nM
A375 cells [7]; 1 μM, crystal violet absorbance 590 nm
  decrease of migration rate: more than 50%
A375 cells [7]; Transwell chamber
  cell migration (in words): dose-dependently inhibited; also recorded: decreased markedly; also recorded: significantly prevented the migration
HCT116 tumor; 25 mg/kg daily, intraperitoneal, up until day 19
  tumor growth inhibition: approximately 50%
HCT116 tumor; 6, 12, 25 mg/kg Q.D., intraperitoneal
  tumor growth inhibition, dose dependence: dose-dependent manner
HCT116 tumor; daily dose of 25 mg/kg, intraperitoneal, 25 mg/kg
  antitumor effect (in words): more effective at a 25 mg/kg dose than 5-FU
HCT116 tumor; nude mice with HCT116 xenograft, during treatment
  body weight / tolerability: well-tolerated

## Cc1cccc(CN2C(=O)c3cc(-c4nc(Nc5ccnc(C#CCCNC(=O)CCCCCCCCCCC(=O)N[C@H](C(=O)N6C[C@H](O)C[C@H]6C(=O)N[C@@H](C)c6ccc(-c7scnc7C)cc6)C(C)(C)C)c5)ncc4C)cn3C[C@H]2C)n1 [Compound B2-12]
ERK1/2 [2]; 48 h
  ERK1/2 degradative activity (in words): effective ERK1/2 degraders
  DC50: 383 ± 208 nM
ERK1/2 [2]; 48 h, Western blot with grayscale quantification
  DCmax: exceeding 65%
A375 cells [6]
  IC50: 7500 ± 6100 nM
HCT116 cells; Homo sapiens, HCT-116, 72 h
  IC50: 11700 ± 10500 nM
Calu-6 cells
  IC50: > 30000 nM
other
  melting point: 143 to 144 °C

## Cn1nccc1Nc1nccc(-c2ccn([C@H](CO)c3ccc(Cl)c(F)c3)c(=O)c2)n1 [GDC-0994, (S)-1-(1-(4-Chloro-3-fluorophenyl)-2-hydroxyethyl)-4-(2-((1-methyl-1H-pyrazol-5-yl)amino)pyrimidin-4-yl)pyridin-2(1H)-one]
ERK1
  IC50: […]
ERK2
  IC50: […]
HCT116 mouse xenografts
  antitumor activity: potent antitumor activity

## Cc1cccc(CN2C(=O)c3cc(-c4nc(Nc5ccnn5C)ncc4C)cn3C[C@H]2C)n1 [compound 35]
ERK2
  IC50: < 0.3 nM
tumor
  antitumor effect: significant tumor regression
